One experiment concerns RBCs from wild-type mice. In words: Osmotic water permeability, RBCs from wild-type mice. Format: cell-based, mouse. The note with it: inhibitors 25 μM, phloretin 0.7 mM, 10° C. On the procedure: FIGS. 8A-B illustrate UT-B-facilitated water transport by ‘chemical UT-B knock-out’. Osmotic water permeability was measured from the time course of RBC volume in response to a 250-mM inwardly directed sucrose gradient. FIG. 8A presents representative traces of mouse RBC water permeability performed at 10° C., with genotypes and conditions indicated. Inhibitors ureainh-201 and ureainh-302 were used at 25 μM. FIG. 8B presents osmotic water permeability coefficients (Pf) from experiments as illustrated in FIG. 8A (±SE, 3-7 curves per group of RBCs pooled from 4 mice per genotype). *, P<0.01 compared with no inhibitor; #, P<0.01 compared with wild-type (no inhibitor).
RBC urea and water permeabilities were assayed by stopped-flow light scattering using a Hi-Tech Sf-51 instrument (Wiltshire, UK). For measurement of urea permeability, dilutions of whole blood (human or mouse; see Example 1) in PBS (hematocrit: approximately 0.5%) were incubated with test compounds for 5 min and then subjected to a 250-mM inwardly directed gradient of urea. After an initial osmotic shrinking phase, the kinetics of increasing cell volume caused by urea influx were measured as the time-course of 90° scattered light intensity at 530 nm, with increasing cell volume resulting in reduced scattered light intensity. As a positive control, 0.7 mM phloretin was added to the RBC suspension prior to stopped-flow experiments. Measurements of water permeability were carried out similarly, with sucrose (cell-impermeant) used instead of urea to establish a 250-mM osmotic gradient. As a positive control, HgCl2 (0.3 mM) was added to the RBC suspension prior to stopped-flow measurements. Osmotic water permeability coefficients (Pf) were computed from light scattering data as described (van Hoek et al., J Biol Chem. 267:18267-69 (1992)).
This example describes chemical knock-out of UT-B by UT-B inhibitors in RBCs and the effect on UT-B-facilitated Water transport. […] Osmotic water permeability was measured by stopped-flow light scattering in RBCs from wild-type and AQP1-null mice as shown in FIG. 8A. […] AQP1-null RBCs had greater than 5-fold reduced Pf compared to wild-type RBCs.

Another experiment deals with T1, mouse UT-B (Mus musculus, UniProt Q8VHL0).
T1 construct: the indicator cells are red blood cells that endogenously express the UT-B urea transporter; endogenous in cells; host or cells: red blood cells of wild-type CD1 mice
T1 sequence (Q8VHL0 1-384): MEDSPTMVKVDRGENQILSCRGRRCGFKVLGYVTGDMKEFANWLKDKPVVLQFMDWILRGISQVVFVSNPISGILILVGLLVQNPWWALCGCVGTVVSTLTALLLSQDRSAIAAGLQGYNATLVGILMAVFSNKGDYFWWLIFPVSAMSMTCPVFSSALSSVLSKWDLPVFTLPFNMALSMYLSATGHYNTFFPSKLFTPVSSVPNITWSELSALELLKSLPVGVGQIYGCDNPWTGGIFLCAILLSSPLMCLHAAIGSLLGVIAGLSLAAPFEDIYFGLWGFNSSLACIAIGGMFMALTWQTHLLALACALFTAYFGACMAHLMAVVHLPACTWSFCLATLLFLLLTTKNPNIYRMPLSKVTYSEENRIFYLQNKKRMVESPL
Put plainly: Stopped-flow light scattering, N-methylurea transport in mouse RBCs. Format: cell-based. Here is the method: As a positive control, 0.7 mM phloretin was added to the RBC suspension prior to stopped-flow experiments. Measurements of water permeability were carried out similarly, with sucrose (cell-impermeant) used instead of urea to establish a 250-mM osmotic gradient. As a positive control, HgCl2 (0.3 mM) was added to the RBC suspension prior to stopped-flow measurements. Osmotic water permeability coefficients (Pf) were computed from light scattering data as described (van Hoek et al., J Biol Chem. 267:18267-69 (1992)).
For stopped-flow experiments, a 100-mM gradient of urea (for human RBCs) or N-methylurea (for mouse RBCs) was used to minimize competition effects (apparent urea and N-methylurea affinities at 23° C. are approximately 200 and approximately 100 mM, respectively) (Mayrand et al., J Gen Physiol. 81:221-37 (1983)). N-methylurea, with greater than 2-fold slower RBC permeability than urea, was used in mouse studies to better resolve overlapping water and urea transport kinetics. Dose-response data were also collected for human RBCs using a high concentration of 1 M urea to distinguish between competitive vs. non-competitive inhibitor binding.
For these studies using mouse RBCs, methylurea was used as the transported solute instead of urea because its transport is slower, allowing better estimation of EC50 values.

The source of these data is US20110053995A1, “BENZENESULFONANILIDE COMPOUND INHIBITORS OF UREA TRANSPORTERS” (THE REGENTS OF THE UNIVERSITY OF CALIFORNIA, priority 2006, published 2011).

SMILES strings stand for the structures.

`NC(=O)CSc1oc(-c2ccccc2)nc1S(=O)(=O)c1ccc(Br)cc1` [ureainh-101]: in the experiment on RBCs from wild-type mice, the “effect on water transport” value was “little effect on water transport”. The “inhibitory potency against mouse UT-B” value against mouse UT-B was “good inhibitory potencies”.

`Cc1ccc(Nc2nnc(-c3ccc(C(N)=O)cc3)c3ccccc23)cc1` [ureainh-302]: the “effect on water transport” value in the experiment with RBCs from wild-type mice is given as “little effect on water transport”. Further, the “inhibitory potency against mouse UT-B” value at mouse UT-B is given as “good inhibitory potencies”.
